US7285680B2, “β-alanine derivatives and the use thereof” (Ono Pharmaceutical Co., Ltd., priority 2002, dated 2007)
pIC50: −log10 of the molar value.

Molecular target: human EDG-2 (Homo sapiens, UniProt Q92633)
Experiment: Evaluation of EDG-2 antagonistic activity by monitoring the change of intracellular calcium ion concentration
Type: cell-based
Conditions: CHO cells overexpressing human EDG-2 gene; LPA final concentration 100 nM; Fura2-AM intracellular calcium; compound 1 nM to 10 μM
Method: Evaluation of EDG-2 Antagonistic Activity by Monitoring the Change of Intracellular Calcium Ion Concentration
Evaluation of EDG-2 antagonistic activity was carried out by using Chinese hamster ovary (CHO) cells which overexpressed human EDG-2 gene. Those cells were cultured with Ham's F12 medium (GIBCO BRL company No.11765-047) containing 10% FBS (fetal bovine serum), penicillin/streptomycin and blasticidin (5 μg/ml). At first in order to uptake Fura2-AM (Dojindo company No.348-05831) into the cells, cells were incubated for 60 minutes at 37 degrees in Fura2-AM (5 μM) solution [Ham's F12 medium containing 10% FBS, 20 mM HEPES buffer (pH 7.4) and 2.5 mM probenecid (Sigma company No.P-8761)]. […] Plates were set in fluorescent drug screening system (Hamamatsu photonics company, FDSS-2000) and intracellular calcium ion concentration was measured for 30 seconds with no stimulation and then solution of the compound of the present invention represented by formula (I) was added. Five minutes after adding thereto LPA (final concentration: 100 nM) was added, the increase of intracellular calcium ion concentrations before and after the addition of LPA (excitation wave length: […]; fluorescent wave length: 500 nm) were measured every 3 seconds. […]

Chain of human EDG-2 (Q92633 whole entry): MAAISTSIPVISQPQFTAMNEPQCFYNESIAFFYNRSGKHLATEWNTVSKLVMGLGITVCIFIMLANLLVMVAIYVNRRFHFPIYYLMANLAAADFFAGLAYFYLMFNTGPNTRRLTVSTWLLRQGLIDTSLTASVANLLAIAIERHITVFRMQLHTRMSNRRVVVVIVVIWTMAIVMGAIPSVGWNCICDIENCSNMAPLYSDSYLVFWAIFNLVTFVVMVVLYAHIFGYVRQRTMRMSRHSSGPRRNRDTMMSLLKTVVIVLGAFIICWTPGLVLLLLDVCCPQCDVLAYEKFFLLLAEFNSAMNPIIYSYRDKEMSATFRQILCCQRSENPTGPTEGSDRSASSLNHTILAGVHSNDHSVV

With `COc1ccc(OC)c(CCN(CCC(=O)O)C(=O)c2ccccc2-c2ccccc2C(=O)NCc2cccnc2)c1` [Example 3(1), 3-(N-((2-(2-((pyridin-3-ylmethylamino)carbonyl)phenyl)phenyl)carbonyl)-N-(2-(2,5-dimethoxyphenyl)ethyl)amino)propanoic acid] the pIC50 was 6.11.
`COc1ccc(OC)c(CCN(CCC(=O)O)C(=O)c2ccccc2-c2ccccc2C(=O)NCc2ccc(Cl)cc2)c1` [Example 3, 3-(N-((2-(2-((4-chlorobenzylamino)carbonyl)phenyl)phenyl)carbonyl)-N-(2-(2,5-dimethoxyphenyl)ethyl)amino)propanoic acid] was tested, and the pIC50 was 6.39.
